Source: patent US9409983B2, “Methods and compositions involving PBEF inhibitors for lung inflammation conditions and diseases” (The Board of Trustess of the University of Illinois, priority 2009, dated 2016)

Tests used:
[1] = system: C57BL/6 mice; experiment: Lung RNA microarray analysis (SAM dysregulated genes) with RT-PCR and BAL ELISA validation; type: in vivo, mouse
Experimental: Total lung RNA was isolated as described previously (Nonas et al., 2007). Affymetrix Mouse430_2 arrays (Affymetrix Inc., Santa Clara, Calif.) were utilized. Chip quality (Li and Wong, 2001) and ‘present’ or ‘absent’ expression calls were determined by GeneChip® Operating Software (GCOS) (GSE9368-rhPBEF, GSE9314-PBEF^+/−). Intensities and normalization of probe sets were calculated by Bioconductor software (GCRMA package) (Team RDC, 2005). To identify differentially-expressed genes, pairwise comparisons were conducted using Significance Analysis of Microarrays (SAM) as previously described (Nonas et al., 2007). Gene filtering parameters and results are summarized in Supplementary Table E2. Differentially-expressed genes displaying>2 fold changes are referred to as “dysregulated genes”.
Dysregulated gene functional profiles were analyzed using Onto-Express with the number of genes in each GO biological process category (Wu et al., 2004) compared with all genes on the […] chip to determine the significance of the GO category (Consortium, 2006). Ingenuity Pathway Analysis (IPA) software (containing individually modeled relationships between gene objects e.g. genes, mRNAs, proteins) was utilized to dynamically generate significant regulatory and signaling networks or pathways. The significance of a canonical pathway is controlled by the p-value calculated using the right-tailed Fisher Exact Test for 2×2 contingency tables. (See Supplemental Methods).
Lung total RNA was isolated from whole rodent lung tissue for microarray experiment as we have described previously (9) using the Affymetrix GeneChip platform and Expression Analysis Manual protocols (Affymetrix Inc., Santa Clara, Calif.). The signal intensity fluorescent images produced during Affymetrix GeneChip Mouse430_2 Array hybridizations were scanned using the Hewlett-Packard GeneArray Scanner G2500A. The ‘Present’ or ‘Absent’ calls of the probe sets in the expression chips were determined by GCOS (GeneChip® Operating Software) software. The microarray data have been submitted to the National Center for Biotechnology Information (NCBI)'s Gene Expression Omnibus repository (GSE9368 for rhPBEF study and GSE9314 for PBEF^+/− study). Chip quality (RNA degradation, cDNA synthesis, hybridization, chip washing, scanning) was evaluated with GCOS, dChip (Li and Wong, 2001) and Bioconductor ‘affy’ packages. All RNA samples and chips adopted in current study passed the quality criteria (data not shown). The intensities of probe sets were calculated by the GC Robust Multichip Average (GCRMA) package of Bioconductor software for normalization (Team RDC, 2005). To identify differentially-expressed genes, pairwise comparisons were conducted using Significance Analysis of Microarrays (SAM) (see the SAM online manual for detailed explanations of the blocking approach, www-stat.stanford.edu/˜tibs/SAM) as we have previously described (Nonas et al., 2007). Only probe sets present (determined by Affy ‘P’-call) in three replicates of at least one group with mean intensity above 100 were used for further data mining. The gene filtering parameters and results were summarized in Supplementary Table E2. […] For probe sets representing the same Entrez Gene or UniGene ID, only the probe set with lowest FDR or highest fold changes was included in the gene list.
Dysregulated genes were uploaded into the IPA software (http://www.ingenuity.com), a web-delivered application which utilizes the Ingenuity Pathways Knowledge Base (IPKB) containing a robust number of individually modeled relationships between gene objects (e.g. genes, mRNAs, proteins), in order to dynamically generate significant regulatory and signaling networks or pathways. […]

[2] = system: C57BL/6 mice; experiment: as above; type: in vivo, mouse; remark: listed apart in the source
[3] = rhPBEF vs. Control, SAM, fold change 2
[4] = VILIa-rhPBEF vs. Control, SAM, fold change 2
[5] = VILIa-rhPBEF vs. VILIa, SAM, fold change 2

## rhPBEF: Recombinant human soluble PBEF/visfatin, a 52 kDa protein containing 465 amino acid residues, purchased from PeproTech
[1]; VILIa-rhPBEF combined exposure, Ingenuity Pathway Analysis
  dysregulated genes in the NFκB pathway: 21
[1]; rhPBEF
  CxCL1 (KC) DNA microarray, average fold change increase over control: 510 fold change
  Map3k8 DNA microarray, average fold change increase over control: 3 fold change
  TNF-α DNA microarray, average fold change increase over control: 23 fold change
[1]; rhPBEF VILIa
  BCL3 DNA microarray, average fold change increase over control: 11 fold change
  CxCL1 (KC) DNA microarray, average fold change increase over control: 589 fold change
  CxCL2 (MIP2α) DNA microarray, average fold change increase over control: 2128 fold change
  MMP9 DNA microarray, average fold change increase over control: 13 fold change
[1]; [3]
  Unique Down: 118
[2]; [4]
  Significant probe sets: 836
  Unique Down: 258
  Unique Up: 432
  Unique gene (dysregulated genes): 690
[2]; [5]
  Significant probe sets: 82
  Unique Down: 0
  Unique Up: 65
  Unique gene (differentially expressed genes): 65
[2]; rhPBEF
  BCL3 DNA microarray, average fold change increase over control: 7 fold change
  BCL3 RNA (RT-PCR), average fold change increase over control: 4 fold change
  CxCL1 (KC) Protein (BAL levels by ELISA), average fold change increase over control: 43 fold change
  CxCL1 (KC) RNA (RT-PCR), average fold change increase over control: 146 fold change
  CxCL2 (MIP2α) DNA microarray, average fold change increase over control: 2290 fold change
  CxCL2 (MIP2α) Protein (BAL levels by ELISA), average fold change increase over control: 115 fold change
  CxCL2 (MIP2α) RNA (RT-PCR), average fold change increase over control: 613 fold change
  IL-1-β DNA microarray, average fold change increase over control: 70 fold change
  IL-1-β Protein (BAL levels by ELISA), average fold change increase over control: 3 fold change
  IL-6 DNA microarray, average fold change increase over control: 240 fold change
  IL-6 Protein (BAL levels by ELISA), average fold change increase over control: 9 fold change
  MMP9 DNA microarray, average fold change increase over control: 16 fold change
  MMP9 RNA (RT-PCR), average fold change increase over control: 16 fold change
  Map3k8 RNA (RT-PCR), average fold change increase over control: 1 fold change
  TNF-α Protein (BAL levels by ELISA), average fold change increase over control: 43 fold change
[2]; rhPBEF VILIa
  BCL3 RNA (RT-PCR), average fold change increase over control: 10 fold change
  CxCL1 (KC) Protein (BAL levels by ELISA), average fold change increase over control: 45 fold change
  CxCL1 (KC) RNA (RT-PCR), average fold change increase over control: 148 fold change
  CxCL2 (MIP2α) Protein (BAL levels by ELISA), average fold change increase over control: 196 fold change
  CxCL2 (MIP2α) RNA (RT-PCR), average fold change increase over control: 1479 fold change
  IL-1-β DNA microarray, average fold change increase over control: 87 fold change
  IL-1-β Protein (BAL levels by ELISA), average fold change increase over control: 3 fold change
  IL-6 DNA microarray, average fold change increase over control: 900 fold change
  IL-6 Protein (BAL levels by ELISA), average fold change increase over control: 27 fold change
  MMP9 RNA (RT-PCR), average fold change increase over control: 1 fold change
  Map3k8 DNA microarray, average fold change increase over control: 4 fold change
  Map3k8 RNA (RT-PCR), average fold change increase over control: 2 fold change
  TNF-α DNA microarray, average fold change increase over control: 23 fold change
  TNF-α Protein (BAL levels by ELISA), average fold change increase over control: 45 fold change
[2]; [3]
  Significant probe sets: 613
  Unique Up: 375
  Unique gene (dysregulated genes): 493
